Data published in patent US12269816B2, “Benzothiophene compound, preparation method therefor and use thereof” (SICHUAN KELUN-BIOTECH BIOPHARMACEUTICAL CO., LTD., priority 2019, dated 2025).

Columns and labels:
[1] = tested on: STING and its downstream proteins TBK1 and IRF3 in Raw264.7 cells; test: Western blotting of phosphorylation of STING signal pathway proteins in mouse Raw264.7 cells; type: cell-based; conditions: 3 hours, protein blotting, FIGS. 6-7, result in words
Source text: (§1) In this experiment, the changes in the phosphorylation levels of STING and its downstream proteins TBK1 (TANK-binding kinase 1) and IRF3 (interferon regulatory factor 3) were detected by protein blotting to evaluate the agonistic effect of the test compounds on the STING signal pathway at the cellular level.
The Raw264.7 cells in the logarithmic phase were centrifuged, and resuspended in a cell culture solution to a density of 1.6×10^6 cells/mL. The cell suspension was inoculated into a 6-well cell culture plate (Corning) at 1 mL/well. The compound to be tested was diluted with a cell culture solution to 2× working solution concentration (control compounds 1 and 2: 60 μM; compound 8: 0.6 μM, 6 μM, and 60 μM; compounds 2, 4 and 6: 6 μM, 20 μM, and 60 μM). 1 mL of the diluted solution of the compound was added into a 6-well plate (1 mL of the culture solution containing 2% DMSO was added into the negative control well). The plate was placed in a cell incubator, and incubated for 3 hours. After the incubation, the cells were collected by centrifugation, lysed with 60 μL cell lysis buffer (CST) for 30 minutes, and centrifuged at 12000 rpm for 15 minutes. The supernatant was collected to determine the protein concentration, and then an appropriate amount of 5× protein loading buffer was added. The mixture was heated at 95° C. for 10 minutes to prepare a protein electrophoresis sample. Finally, protein blotting was performed to detect the phosphorylation level of the corresponding protein. The primary antibodies used in the protein blotting were purchased from CST: STING (D2P2F) rabbit mAb, Phospho-STING (Ser365) rabbit mAb, Phospho-IRF3 (Ser396) (D601M) rabbit mAb, IRF3 (D83B9) rabbit mAb, TBK1/NAK (D1B4) rabbit mAb, Phospho-TBK1/NAK (Ser172) (D52C2) XPV rabbit mAb, GAPDH (D16H11) rabbit mAb; and the secondary antibody horseradish peroxidase-conjugated goat anti-rabbit IgG (H+L) was purchased from Zsgb-bio.

[2] = tested on: STING and its downstream proteins TBK1 and IRF3 in THP-1 cells; test: Western blotting of phosphorylation of STING signal pathway proteins in human THP-1 cells; type: cell-based; conditions: 3 hours, protein blotting, FIGS. 1-5, result in words
Source text: as §1
The THP-1 cells in the logarithmic phase were centrifuged, and resuspended in a cell culture solution to a density of […]. The cell suspension was inoculated into a 12-well cell culture plate (Corning) at 0.5 mL/well. The compound to be tested was diluted with a cell culture solution to 2× working solution concentration (control compounds 1 and 2: 60 μM; compounds 1 and 3: 0.6 μM, 6 μM, and 60 μM; compounds 2, 4, 6 and 8: 6 μM, 20 μM, and 60 μM). 0.5 mL of the diluted solution of the compound was added into a 12-well plate (500 μl of the culture solution containing 2% DMSO was added into the negative control well), and the plate was incubated in a cell incubator for 3 hours. After the incubation, the cells were collected by centrifugation, lysed with 60 μL cell lysis buffer (CST) for 30 minutes, and centrifuged at 12,000 rpm for 15 minutes. The supernatant was collected to determine the protein concentration, and then an appropriate amount of 5× protein loading buffer was added. The mixture was heated at 95° C. for 10 minutes to prepare a protein electrophoresis sample. Finally protein blotting was performed to detect the phosphorylation level of the corresponding protein. The primary antibodies used in the protein blotting were purchased from CST: STING (D2P2F) rabbit mAb, Phospho-STING (Ser366) rabbit mAb, Phospho-IRF3 (Ser396) (D601M) rabbit mAb, IRF3 (D83B9) rabbit mAb, TBK1/NAK (D1B4) rabbit mAb, Phospho-TBK1/NAK (Ser172) (D52C2) XP® rabbit mAb, and GAPDH (D16H11) rabbit mAb; and the secondary antibody horseradish peroxidase-conjugated goat anti-rabbit IgG (H+L) was purchased from Zsgb-bio.

[3] = tested on: STING-mediated interferon (IFN) signal reporter gene in THP1-Blue™ ISG cells; test: STING-mediated interferon (IFN) signal SEAP reporter gene assay in THP1-Blue ISG cells; type: cell-based, human
Source text: In this experiment, the activity of the SEAP (secreted embryonic alkaline phosphatase) reporter gene regulated by the IFN regulatory factor (interferon regulatory factor) was detected in the THP1-Blue™ ISG cells (InvivoGen) to evaluate the agonistic effect of the compounds to be tested on the STING-mediated IFN signal pathway at the cellular level.
The THP1-Blue™ ISG cells (InvivoGen) in the logarithmic phase were centrifuged, and resuspended in a cell culture solution to a density of 2×10^6 cells/ml. The cell suspension was inoculated in a 96-well cell culture plate (Corning) at 50 μL/well. The mother liquor of the compound to be tested was gradiently diluted with a cell culture solution to obtain a 2× working concentration diluted solution (control compounds 1 and 2 were diluted at a 3-fold gradient: 200, 66.67, 22.22, 7.41, 2.47, 0.82, 0.27 and 0 μM; compounds 1, 2, 4, 6, 8, and 23 were diluted at a 8-fold gradient: 60, 7.5, 0.94, 0.12, 0.015, 0.0018, 0.00023 and 0 μM; and compounds 3 and 5 were diluted at a 10-fold gradient: 10, 1, 0.1, 0.01, 0.001, 0.0001, 0.00001 and 0 μM). The 2× working concentration diluted solution of the compound was added into a 96-well plate (50 μl of the culture solution containing 2% DMSO was added into the negative control well) at 50 μL/well. The culture plate was then placed in a cell incubator, and incubated for 16 h. After the cell incubation, 10 μL of the cell culture supernatant was transferred to a 96-well plate, and a QUANTI-Blue (InvivoGen) solution was added at 90 μL/well. The cells were incubated at 37° C. for 3 h. The absorbance at 620 nm (OD620nm) was read with a microplate reader.
In the table, EC50 refers to the concentration of a compound when ODM620nm value generated by stimulation of the compound reaches half of Emax; and Emax refers to the highest OD620nm value generated by stimulation of the compound.

COc1cc2cc(C(=O)CCC(=O)O)sc2cc1OCCCOc1cc2sc(C(=O)N(C)CCC(=O)O)cc2cc1OC [Compound 2, 4-(6-(3-((2-((2-carboxyethyl)(methyl)carbamoyl)-5-methoxybenzo[b]thiophen-6-yl)oxy)propoxy)-5-methoxybenzo[b]thiophen-2-yl)-4-oxobutanoic acid]
agonistic effect on the phosphorylation levels of STING, TBK1 and IRF3 [1]: strong agonistic effects
agonistic effect on the phosphorylation levels of STING, TBK1 and IRF3 [2]: strong agonistic effects
EC50 ([3]; Homo sapiens, 16 h incubation, SEAP reporter read at OD620nm): 457 nM
Emax (OD620nm) ([3]; highest OD620nm value generated by stimulation of the compound, 16 h): 1.82 OD620nm
agonistic effect on the STING-mediated Interferon (IFN) signal pathway ([3]; result in words): strong agonistic effects
